From patent US11000033B2, “Ketone or oxime compound, and herbicide” (NISSAN CHEMICAL CORPORATION, priority 2014, dated 2021)

Tests used:
Amaranthus retroflexus [1] = assay: Test Example 5: herbicidal effect by foliage application, plastic box (symbol N); assay type: in vivo; settings: 320 g/ha, 3 weeks after application
In short: (§1)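 Visual herbicidal score, taken three weeks post-application, of seedlings sprayed on the foliage with water-diluted emulsion at a predetermined amount; plants were 14 days old, greenhouse-raised at 25° C. to 30° C.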

[2] = tested on: Echinochloa oryzacola Vasing.; assay: Test Example 2: herbicidal activity, application during weed generation in submerged conditions (symbol A); assay type: in vivo; settings: Table 23; application herbicide amount 320 g/ha; grade 0-5 by criteria of Test Example 1
In short: (§2)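 Read-out: herbicidal effect on each species rated on a visual scale 3 weeks after treatment. Plants were raised together from seed in flooded alluvial soil (4 cm water) at 25° C. to 30° C. and treated at one to two leaves by water-surface application of diluted emulsion.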

corn [3] = assay: Test Example 5: effect on crop by foliage application, plastic box (symbol c); assay type: in vivo; settings: 320 g/ha, 3 weeks after application
In short: (§3)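 Greenhouse culture at 25° C. to 30° C. followed spot-like sowing into sterilized diluvial soil, with seed covered by roughly 1.5 cm of soil.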

Stellaria media [4] = assay: Test Example 5: herbicidal effect by foliage application, plastic box (symbol P); assay type: in vivo; settings: 320 g/ha, 3 weeks after application
In short: as §1

Galium spurium = assay: Test Example 4: herbicidal effect by soil treatment (symbol Q); assay type: in vivo; settings: application herbicide amount 320 g/ha
Text: (§4) Herbicidal Effect Test by Soil Treatment
(§5) Sterilized diluvial soil was placed in a plastic box having a length of 21 cm, a width of 13 cm, and a depth of 7 cm. Each of the seeds of Digitaria ciliaris, Setaria viridis, Echinochloa crus-galli var. crus-galli, Avena fatua, Alopecurus myosuroides, Lolium multiflorum Lam., Apera spica-venti, Abutilon theophrasti, Amaranthus retroflexus, Chenopodium album, Stellaria media, Galium spurium, Veronica persica, corn, soybean, rice, wheat, beet, and rapeseed was sowed in a spot-like manner and was covered with the soil of a thickness of about 1.5 cm. Subsequently, the emulsion agent of the compound present invention prepared in accordance with Formulation Example 2 was diluted with water so as to be a predetermined herbicide amount and the diluted emulsion agent was uniformly applied to the surface of the soil with a small-size spray. The plastic box was placed in a greenhouse of 25° C. to 30° C. to grow plant. 3 weeks later from the herbicide application, the effect to each plant was investigated in accordance with the criteria of Test Example 1.

Lolium multiflorum Lam. [5] = assay: Test Example 4: herbicidal effect by soil treatment (symbol K); assay type: in vivo; settings: application herbicide amount 320 g/ha
Text: as §4, §5

Apera spica-venti [6] = assay: Test Example 5: herbicidal effect by foliage application, plastic box (symbol L); assay type: in vivo; settings: 320 g/ha, 3 weeks after application
In short: as §1

Setaria viridis [7] = assay: Test Example 5: herbicidal effect by foliage application, plastic box (symbol G); assay type: in vivo; settings: 320 g/ha, 3 weeks after application
In short: as §1

Chenopodium album [8] = assay: Test Example 4: herbicidal effect by soil treatment (symbol O); assay type: in vivo; settings: application herbicide amount 320 g/ha
Text: as §4, §5

beet [9] = assay: Test Example 5: effect on crop by foliage application, plastic box (symbol f); assay type: in vivo; settings: 320 g/ha, 3 weeks after application
In short: as §3

Digitaria ciliaris [10] = assay: Test Example 5: herbicidal effect by foliage application, plastic box (symbol F); assay type: in vivo; settings: 320 g/ha, 3 weeks after application
In short: as §1

rice plant = assay: Test Example 5: effect on crop by foliage application, plastic box (symbol b); assay type: in vivo; settings: 320 g/ha, 3 weeks after application
In short: as §3

Scirpus juncoides = assay: Test Example 2: herbicidal activity, application during weed generation in submerged conditions (symbol B); assay type: in vivo; settings: Table 23; application herbicide amount 320 g/ha; grade 0-5 by criteria of Test Example 1
In short: as §2

Stellaria media [11] = assay: Test Example 4: herbicidal effect by soil treatment (symbol P); assay type: in vivo; settings: application herbicide amount 320 g/ha
Text: as §4, §5

Avena fatua [12] = assay: Test Example 4: herbicidal effect by soil treatment (symbol I); assay type: in vivo; settings: application herbicide amount 320 g/ha
Text: as §4, §5

Abutilon theophrasti [13] = assay: Test Example 4: herbicidal effect by soil treatment (symbol M); assay type: in vivo; settings: application herbicide amount 320 g/ha
Text: as §4, §5

Apera spica-venti [14] = assay: Test Example 4: herbicidal effect by soil treatment (symbol L); assay type: in vivo; settings: application herbicide amount 320 g/ha
Text: as §4, §5

Veronica persica [15] = assay: Test Example 5: herbicidal effect by foliage application, plastic box (symbol R); assay type: in vivo; settings: 320 g/ha, 3 weeks after application
In short: as §1

[16] = tested on: Echinochloa crus-galli var. crus-galli; assay: Test Example 5: herbicidal effect by foliage application, plastic box (symbol H); assay type: in vivo; settings: 320 g/ha, 3 weeks after application
In short: as §1

Digitaria ciliaris [17] = assay: Test Example 4: herbicidal effect by soil treatment (symbol F); assay type: in vivo; settings: application herbicide amount 320 g/ha
Text: as §4, §5

Lolium multiflorum Lam. [18] = assay: Test Example 5: herbicidal effect by foliage application, plastic box (symbol K); assay type: in vivo; settings: 320 g/ha, 3 weeks after application
In short: as §1

Avena fatua [19] = assay: Test Example 5: herbicidal effect by foliage application, plastic box (symbol I); assay type: in vivo; settings: 320 g/ha, 3 weeks after application
In short: as §1

soybean [20] = assay: Test Example 4: effect on crop by soil treatment (symbol d); assay type: in vivo; settings: application herbicide amount 320 g/ha
Text: as §4
(§6) Sterilized diluvial soil was placed in a plastic box having a length of 21 cm, a width of 13 cm, and a depth of 7 cm. Each of the seeds of Digitaria ciliaris, Setaria viridis, Echinochloa crus-galli var. crus-galli, Avena fatua, Alopecurus myosuroides, Lolium multiflorum Lam., Apera spica-venti, Abutilon theophrasti, Amaranthus retroflexus, Chenopodium album, Stellaria media, Galium spurium, Veronica persica, corn, soybean, rice, wheat, beet, and rapeseed was sowed in a spot-like manner and was covered with the soil of a thickness of about 1.5 cm. […] The plastic box was placed in a greenhouse of 25° C. to 30° C. to grow plant.

Setaria viridis [21] = assay: Test Example 4: herbicidal effect by soil treatment (symbol G); assay type: in vivo; settings: application herbicide amount 320 g/ha
Text: as §4, §5

Abutilon theophrasti [22] = assay: Test Example 5: herbicidal effect by foliage application, plastic box (symbol M); assay type: in vivo; settings: 320 g/ha, 3 weeks after application
In short: as §1

rice = assay: Test Example 4: effect on crop by soil treatment (symbol b); assay type: in vivo; settings: application herbicide amount 320 g/ha
Text: as §4, §6

soybean [23] = assay: Test Example 5: effect on crop by foliage application, plastic box (symbol d); assay type: in vivo; settings: 320 g/ha, 3 weeks after application
In short: as §3

[24] = tested on: Echinochloa crus-galli var. crus-galli; assay: Test Example 4: herbicidal effect by soil treatment (symbol H); assay type: in vivo; settings: application herbicide amount 320 g/ha
Text: as §4, §5

Alopecurus myosuroides [25] = assay: Test Example 4: herbicidal effect by soil treatment (symbol J); assay type: in vivo; settings: application herbicide amount 320 g/ha
Text: as §4, §5

wheat [26] = assay: Test Example 4: effect on crop by soil treatment (symbol e); assay type: in vivo; settings: application herbicide amount 320 g/ha
Text: as §4, §6

Amaranthus retroflexus [27] = assay: Test Example 4: herbicidal effect by soil treatment (symbol N); assay type: in vivo; settings: application herbicide amount 320 g/ha
Text: as §4, §5

Monochoria vaginalis = assay: Test Example 2: herbicidal activity, application during weed generation in submerged conditions (symbol C); assay type: in vivo; settings: Table 23; application herbicide amount 320 g/ha; grade 0-5 by criteria of Test Example 1
In short: as §2

rapeseed [28] = assay: Test Example 4: effect on crop by soil treatment (symbol g); assay type: in vivo; settings: application herbicide amount 320 g/ha
Text: as §4, §6

Chenopodium album [29] = assay: Test Example 5: herbicidal effect by foliage application, plastic box (symbol O); assay type: in vivo; settings: 320 g/ha, 3 weeks after application
In short: as §1

wheat [30] = assay: Test Example 5: effect on crop by foliage application, plastic box (symbol e); assay type: in vivo; settings: 320 g/ha, 3 weeks after application
In short: as §3

beet [31] = assay: Test Example 4: effect on crop by soil treatment (symbol f); assay type: in vivo; settings: application herbicide amount 320 g/ha
Text: as §4, §6

corn [32] = assay: Test Example 4: effect on crop by soil treatment (symbol c); assay type: in vivo; settings: application herbicide amount 320 g/ha
Text: as §4, §6

Alopecurus myosuroides [33] = assay: Test Example 5: herbicidal effect by foliage application, plastic box (symbol J); assay type: in vivo; settings: 320 g/ha, 3 weeks after application
In short: as §1

rapeseed [34] = assay: Test Example 5: effect on crop by foliage application, plastic box (symbol g); assay type: in vivo; settings: 320 g/ha, 3 weeks after application
In short: as §3

Veronica persica [35] = assay: Test Example 4: herbicidal effect by soil treatment (symbol R); assay type: in vivo; settings: application herbicide amount 320 g/ha
Text: as §4, §5

## CON=C(C)CC1CC(OC)=C(c2c(C)cc(OC)cc2C)C1=O (stereo not drawn) [6-048]
other
  melting point: 82 to 85 °C

## CON=C(C)CC1CC(OC)=C(c2c(C)cc(O)cc2C)C1=O (stereo not drawn) [6-069]
other
  melting point: 192 to 195 °C

## CC(=O)CC1CC(O)=C(c2c(C)cc(C3CC3)cc2C)C1=O (stereo not drawn) [7-013]
Amaranthus retroflexus [1]
  N: Amaranthus retroflexus, herbicidal effect (criteria of Test Example 1): 5 (Herbicidal ratio of 90% or more (almost completely withered))
[2]
  Herbicidal effect grade, A: Echinochloa oryzacola Vasing.: 2 (Herbicidal ratio of 20% or higher and lower than 40%)
Corn [3]
  c: corn, effect on crop (criteria of Test Example 1): 0 (Herbicidal ratio of 5% or lower (almost no effect))
Stellaria media [4]
  P: Stellaria media, herbicidal effect (criteria of Test Example 1): 0 (Herbicidal ratio of 5% or lower (almost no effect))
Galium spurium
  Herbicidal effect grade, Q: Galium spurium: 0 (Herbicidal ratio of 5% or lower (almost no effect))
Lolium multiflorum Lam. [5]
  Herbicidal effect grade, K: Lolium multiflorum Lam.: 0 (Herbicidal ratio of 5% or lower (almost no effect))
Apera spica-venti [6]
  L: Apera spica-venti, herbicidal effect (criteria of Test Example 1): 0 (Herbicidal ratio of 5% or lower (almost no effect))
Setaria viridis [7]
  G: Setaria viridis, herbicidal effect (criteria of Test Example 1): 2 (Herbicidal ratio of 20% or higher and lower than 40%)
Chenopodium album [8]
  Herbicidal effect grade, O: Chenopodium album: 0 (Herbicidal ratio of 5% or lower (almost no effect))
Beet [9]
  f: beet, effect on crop (criteria of Test Example 1): 0 (Herbicidal ratio of 5% or lower (almost no effect))
Digitaria ciliaris [10]
  F: Digitaria ciliaris, herbicidal effect (criteria of Test Example 1): 4 (Herbicidal ratio of 70% or higher and lower than 90%)
Rice plant
  b: directly sowed rice plant, effect on crop (criteria of Test Example 1): 1 (Herbicidal ratio of 5% or higher and lower than 20%)
Scirpus juncoides
  Herbicidal effect grade, B: Scirpus juncoides: 0 (Herbicidal ratio of 5% or lower (almost no effect))
Stellaria media [11]
  Herbicidal effect grade, P: Stellaria media: 0 (Herbicidal ratio of 5% or lower (almost no effect))
Avena fatua [12]
  Herbicidal effect grade, I: Avena fatua: 0 (Herbicidal ratio of 5% or lower (almost no effect))
Abutilon theophrasti [13]
  Herbicidal effect grade, M: Abutilon theophrasti: 0 (Herbicidal ratio of 5% or lower (almost no effect))
Apera spica-venti [14]
  Herbicidal effect grade, L: Apera spica-venti: 0 (Herbicidal ratio of 5% or lower (almost no effect))
Veronica persica [15]
  R: Veronica persica, herbicidal effect (criteria of Test Example 1): 0 (Herbicidal ratio of 5% or lower (almost no effect))
[16]
  H: Echinochloa crus-galli var. crus-galli, herbicidal effect (criteria of Test Example 1): 1 (Herbicidal ratio of 5% or higher and lower than 20%)
Digitaria ciliaris [17]
  Herbicidal effect grade, F: Digitaria ciliaris: 3 (Herbicidal ratio of 40% or higher and lower than 70%)
Lolium multiflorum Lam. [18]
  K: Lolium multiflorum Lam., herbicidal effect (criteria of Test Example 1): 3 (Herbicidal ratio of 40% or higher and lower than 70%)
Avena fatua [19]
  I: Avena fatua, herbicidal effect (criteria of Test Example 1): 1 (Herbicidal ratio of 5% or higher and lower than 20%)
Soybean [20]
  Effect on crop grade, d: soybean: 0 (Herbicidal ratio of 5% or lower (almost no effect))
Setaria viridis [21]
  Herbicidal effect grade, G: Setaria viridis: 0 (Herbicidal ratio of 5% or lower (almost no effect))
Abutilon theophrasti [22]
  M: Abutilon theophrasti, herbicidal effect (criteria of Test Example 1): 0 (Herbicidal ratio of 5% or lower (almost no effect))
rice
  Effect on crop grade, b: directly sowed rice plant: 4 (Herbicidal ratio of 70% or higher and lower than 90%)
Soybean [23]
  d: soybean, effect on crop (criteria of Test Example 1): 0 (Herbicidal ratio of 5% or lower (almost no effect))
[24]
  Herbicidal effect grade, H: Echinochloa crus-galli var. crus-galli: 0 (Herbicidal ratio of 5% or lower (almost no effect))
Alopecurus myosuroides [25]
  Herbicidal effect grade, J: Alopecurus myosuroides: 0 (Herbicidal ratio of 5% or lower (almost no effect))
Wheat [26]
  Effect on crop grade, e: wheat: 0 (Herbicidal ratio of 5% or lower (almost no effect))
Amaranthus retroflexus [27]
  Herbicidal effect grade, N: Amaranthus retroflexus: 0 (Herbicidal ratio of 5% or lower (almost no effect))
Monochoria vaginalis
  Herbicidal effect grade, C: Monochoria vaginalis: 0 (Herbicidal ratio of 5% or lower (almost no effect))
Rapeseed [28]
  Effect on crop grade, g: rapeseed: 0 (Herbicidal ratio of 5% or lower (almost no effect))
Chenopodium album [29]
  O: Chenopodium album, herbicidal effect (criteria of Test Example 1): 0 (Herbicidal ratio of 5% or lower (almost no effect))
Wheat [30]
  e: wheat, effect on crop (criteria of Test Example 1): 0 (Herbicidal ratio of 5% or lower (almost no effect))
Beet [31]
  Effect on crop grade, f: beet: 0 (Herbicidal ratio of 5% or lower (almost no effect))
Corn [32]
  Effect on crop grade, c: corn: 0 (Herbicidal ratio of 5% or lower (almost no effect))
Alopecurus myosuroides [33]
  J: Alopecurus myosuroides, herbicidal effect (criteria of Test Example 1): 3 (Herbicidal ratio of 40% or higher and lower than 70%)
Rapeseed [34]
  g: rapeseed, effect on crop (criteria of Test Example 1): 1 (Herbicidal ratio of 5% or higher and lower than 20%)
Veronica persica [35]
  Herbicidal effect grade, R: Veronica persica: 0 (Herbicidal ratio of 5% or lower (almost no effect))
